How the values were obtained:
AMARE [1] = assay: Pre-emergence herbicidal action against AMARE; assay type: in vivo, Amaranthus retroflexus
Excerpt: (§1) Seeds of monocotyledonous and dicotyledonous weed plants and crop plants are laid out in sandy loam soil in wood-fiber pots and covered with soil. The compounds of the invention, formulated in the form of wettable powders (WP) or as emulsion concentrates (EC), are then applied to the surface of the covering soil in the form of an aqueous suspension or emulsion at a water application rate equivalent to 600 to 800 l/ha, with addition of 0.2% wetting agent. After the treatment, the pots are placed in a greenhouse and kept under good growth conditions for the trial plants. The damage to the test plants is scored visually after a test period of 3 weeks by comparison with untreated controls (herbicidal activity in percent (%): 100% activity=the plants have died, 0% activity=like control plants). […] The tables below illustrate, in an illustrative manner, the post-emergence herbicidal action of the compounds of the invention, the herbicidal activity being stated in percent.

AMARE [2] = assay: Post-emergence herbicidal action against AMARE; assay type: in vivo, Amaranthus retroflexus; conditions: 20 g/ha, visual assessment about 3 weeks after treatment, 100% = plants have died, 0% = like control plants
Description: (§2) Seeds of monocotyledonous and dicotyledonous weed and crop plants are laid out in sandy loam soil in wood-fiber pots, covered with soil and cultivated in a greenhouse under good growth conditions. 2 to 3 weeks after sowing, the test plants are treated at the one-leaf stage. The compounds of the invention, formulated in the form of wettable powders (WP) or as emulsion concentrates (EC), are then sprayed onto the green parts of the plants in the form of an aqueous suspension or emulsion at a water application rate equivalent to 600 to 800 l/ha, with addition of 0.2% wetting agent. After the test plants have been left to stand in the greenhouse under optimal growth conditions for about 3 weeks, the action of the preparations is assessed visually in comparison to untreated controls (herbicidal action in percent (%): 100% activity=the plants have died, 0% activity=like control plants). […] The tables below illustrate, in an illustrative manner, the post-emergence herbicidal action of the compounds of the invention, the herbicidal activity being stated in percent.

VIOTR [3] = assay: Post-emergence herbicidal action against VIOTR; assay type: in vivo, Viola tricolor
Description: as §2

VIOTR [4] = assay: Pre-emergence herbicidal action against VIOTR; assay type: in vivo, Viola tricolor
Excerpt: as §1

DIGSA = assay: Pre-emergence herbicidal action against DIGSA; assay type: in vivo, Digitaria sanguinalis
Excerpt: as §1

ABUTH [5] = assay: Pre-emergence herbicidal action against ABUTH; assay type: in vivo, Abutilon theophrasti; conditions: for Pre-emergence action against ABUTH (herbicidal activity in percent): dosage 20 g/ha, scored visually after 3 weeks vs untreated controls, 100% = plants have died, 0% = like control plants
Excerpt: as §1

MATIN = assay: Pre-emergence herbicidal action against MATIN; assay type: in vivo, Matricaria inodora
Excerpt: as §1

ECHCG [6] = assay: Pre-emergence herbicidal action against ECHCG; assay type: in vivo, Echinochloa crus-galli; conditions: 80 g/ha
Excerpt: as §1

PHBPU = assay: Post-emergence herbicidal action against PHBPU; assay type: in vivo, Pharbitis purpurea; conditions: dosage 20 g/ha
Description: as §2

ECHCG [7] = assay: Post-emergence herbicidal action against ECHCG; assay type: in vivo, Echinochloa crus-galli
Description: as §2

SETVI [8] = assay: Pre-emergence herbicidal action against SETVI; assay type: in vivo, Setaria viridis
Excerpt: as §1

ALOMY = assay: Pre-emergence herbicidal action against ALOMY; assay type: in vivo, Alopecurus myosuroides; conditions: 80 g/ha, pre-emergence, scored visually after 3 weeks vs untreated controls (100% = plants have died, 0% = like control plants)
Excerpt: as §1

ABUTH [9] = assay: Post-emergence herbicidal action against ABUTH; assay type: in vivo, Abutilon theophrasti; conditions: dosage 20 g/ha, visual assessment about 3 weeks after treatment vs untreated controls
Description: as §2

SETVI [10] = assay: Post-emergence herbicidal action against SETVI; assay type: in vivo, Setaria viridis; conditions: dosage 20 g/ha
Description: as §2

[11] = 80 g/ha, scored visually after 3 weeks vs untreated controls (100% = plants have died, 0% = like control plants)
[12] = 20 g/ha, scored visually after 3 weeks vs untreated controls, 100% = plants have died, 0% = like control plants

Row | Compound | Pre-emergence action against AMARE in % (AMARE [1]; [11]) [%] | Post-emergence action at 20 g/ha against AMARE in % (AMARE [2]) [%] | Pre-emergence action against ECHCG in % (ECHCG [6]) [%] | Pre-emergence action against AMARE in % (AMARE [1]; [12]) [%] | Post-emergence action against ECHCG in % (ECHCG [7]; dosage 20 g/ha) [%] | Pre-emergence action against MATIN in % (MATIN; dosage 80 g/ha) [%] | Pre-emergence action against ABUTH (herbicidal activity) (ABUTH [5]; [11]) [%] | Pre-emergence action against DIGSA in % (DIGSA; dosage 80 g/ha) [%] | other results
1 | Cn1nnnc1NC(=O)c1ccc(C(F)(F)F)c(C(=O)NCC#N)c1Cl [Example 1-140] | 100 | 80 | – | – | – | – | – | – | Post-emergence action against VIOTR in % (VIOTR [3]; 20 g/ha): 80%; Pre-emergence action against VIOTR in % (VIOTR [4]; dosage 80 g/ha): 90%
2 | Cn1nnnc1NC(=O)c1ccc(C(F)(F)F)c(C(=O)Nc2ccccc2)c1Cl [Example 1-143] | – | – | – | – | – | – | – | – | pest or weed control at 80 g/ha (DIGSA; Digitaria sanguinalis, 504 h, dosage 80 g/ha): 80%; pest or weed control at 80 g/ha (AMARE [1]; Amaranthus retroflexus, 504 h, 80 g/ha, scored visually after 3 weeks vs untreated controls, 100% = plants have died, 0% = like control plants): 100%; pest or weed control at 80 g/ha (ABUTH [5]; Abutilon theophrasti, 504 h, 80 g/ha, scored visually after 3 weeks vs untreated controls (100% = plants have died, 0% = like control plants)): 100%; pest or weed control at 20 g/ha (MATIN; Tripleurospermum inodorum, 504 h, dosage 20 g/ha): 80%; pest or weed control at 80 g/ha (MATIN; Tripleurospermum inodorum, 504 h, dosage 80 g/ha): 100%
3 | CSCCNC(=O)c1c(C(F)F)ccc(C(=O)Nc2nnnn2C)c1Cl [Example 1-157] | 100 | – | – | – | – | – | – | – | –
4 | Cn1nnnc1NC(=O)c1ccc(C(F)F)c(C(=O)NCc2cccs2)c1Cl [Example 1-162] | 100 | 90 | 100 | 90 | 80 | 90 | – | – | Post-emergence action against PHBPU in % (PHBPU): 80%; Pre-emergence action against SETVI in % (SETVI [8]; dosage 80 g/ha): 80%; Pre-emergence action against ALOMY (herbicidal activity) (ALOMY): 90%
5 | CCn1nnnc1NC(=O)c1ccc(C(F)F)c(C(=O)NCCSC)c1Cl [Example 2-157] | 90 | 90 | – | – | – | – | – | – | –
6 | CCn1nnnc1NC(=O)c1ccc(C(F)F)c(C(=O)NCc2cccs2)c1Cl [Example 2-162] | 100 | 100 | 80 | 90 | – | 90 | – | – | Pre-emergence action against VIOTR in % (VIOTR [4]; dosage 80 g/ha): 80%
7 | CCn1nnnc1NC(=O)c1ccc(C(F)F)c(C(=O)NCCSC)c1C [Example 2-347] | – | – | – | – | – | – | 100 | – | –
8 | N#CCNC(=O)c1c(C(F)(F)F)ccc(C(=O)Nc2nnco2)c1Cl [Example 5-254] | 100 | 80 | – | – | – | – | 100 | – | Pre-emergence action against VIOTR in % (VIOTR [4]; dosage 80 g/ha): 90%
9 | CNC(=O)c1c(C(F)F)ccc(C(=O)Nc2nnc(C)o2)c1OC [Example 6-49] | 100 | – | – | 80 | – | – | – | – | Post-emergence action against VIOTR in % (VIOTR [3]; 20 g/ha): 80%; Post-emergence action against ABUTH in % (ABUTH [9]): 80%; Pre-emergence action against VIOTR in % (VIOTR [4]; dosage 20 g/ha): 80%; Pre-emergence action against VIOTR in % (VIOTR [4]; dosage 80 g/ha): 80%
10 | CCNC(=O)c1c(C(F)F)ccc(C(=O)Nc2nnc(C)o2)c1OC [Example 6-50] | 100 | – | – | 100 | 80 | 80 | 90 | 100 | Post-emergence action against VIOTR in % (VIOTR [3]; 20 g/ha): 80%; Post-emergence action against ABUTH in % (ABUTH [9]): 80%
11 | COc1c(C(=O)Nc2nnc(C)o2)ccc(C(F)F)c1C(=O)NC1CC1 [Example 6-51] | 100 | – | – | 80 | 80 | – | 100 | 100 | –
12 | CSc1c(C(=O)Nc2nnc(C)o2)ccc(C(F)(F)F)c1C(=O)NC1CC1 [Example 6-60] | 100 | 100 | 80 | – | 90 | 90 | 90 | – | Post-emergence action against ABUTH in % (ABUTH [9]): 90%
13 | CSc1c(C(=O)Nc2nnc(C)o2)ccc(C(F)F)c1C(=O)NC1CC1 [Example 6-76] | 100 | 100 | – | – | 80 | 90 | – | – | Post-emergence action against SETVI in % (SETVI [10]): 80%; Pre-emergence action against SETVI in % (SETVI [8]; dosage 80 g/ha): 80%
14 | Cc1nnc(NC(=O)c2ccc(Br)c(C(=O)NCC3CC3)c2Cl)o1 [Example 6-143] | 100 | – | – | 100 | – | – | 100 | 100 | Pre-emergence action against ABUTH (herbicidal activity in percent) (ABUTH [5]): 100%
15 | Cc1nnc(NC(=O)c2ccc(Br)c(C(=O)NCC(F)(F)F)c2Cl)o1 [Example 6-144] | 100 | – | 100 | 90 | 80 | 80 | 90 | 100 | Pre-emergence action against DIGSA in % (DIGSA; dosage 20 g/ha): 90%; Pre-emergence action against SETVI in % (SETVI [8]; dosage 80 g/ha): 90%
16 | Cc1nnc(NC(=O)c2ccc(C(F)F)c(C(=O)NCC3CC3)c2Br)o1 [Example 6-167] | 100 | 100 | 100 | 100 | 80 | 90 | 100 | 90 | Pre-emergence action against ABUTH (herbicidal activity in percent) (ABUTH [5]): 90%; Pre-emergence action against SETVI in % (SETVI [8]; dosage 20 g/ha): 80%; Pre-emergence action against SETVI in % (SETVI [8]; dosage 80 g/ha): 80%; Pre-emergence action against VIOTR in % (VIOTR [4]; dosage 20 g/ha): 90%; Pre-emergence action against VIOTR in % (VIOTR [4]; dosage 80 g/ha): 100%
17 | Cc1nnc(NC(=O)c2ccc(C(F)(F)F)c(C(=O)NCC(F)F)c2C2CC2)o1 [Example 6-230] | 100 | 90 | 80 | 100 | – | 80 | 90 | 80 | Post-emergence action against PHBPU in % (PHBPU): 80%
18 | CNC(=O)c1c(C(F)F)ccc(C(=O)Nc2nnc(C)o2)c1C1CC1 [Example 6-231] | 100 | 90 | – | – | – | 80 | – | 90 | Pre-emergence action against DIGSA in % (DIGSA; dosage 20 g/ha): 80%; Post-emergence action against VIOTR in % (VIOTR [3]; 5 g/ha): 90%; Post-emergence action against VIOTR in % (VIOTR [3]; 20 g/ha): 90%
19 | Cc1nnc(NC(=O)c2ccc(C(F)F)c(C(=O)NC3CC3)c2C2CC2)o1 [Example 6-233] | 80 | – | – | – | 80 | – | – | 90 | –
20 | Cc1nnc(NC(=O)c2ccc(Br)c(C(=O)NC(C)C3CC3)c2Cl)o1 (stereo not shown) [Example 6-257] | 100 | – | 80 | – | 90 | 90 | 100 | 100 | Post-emergence action against ECHCG in % (ECHCG [7]; dosage 5 g/ha): 80%; Pre-emergence action against MATIN in % (MATIN; dosage 20 g/ha): 80%
21 | Cc1nnc(NC(=O)c2ccc(C(F)F)c(C(=O)NCC(=O)N(C)C)c2Cl)o1 [Example 6-265] | 80 | – | – | – | – | – | – | – | –
22 | Cc1nnc(NC(=O)c2ccc(C(F)F)c(C(=O)Nc3ccccc3)c2Cl)o1 [Example 6-266] | 100 | 100 | – | 90 | – | 80 | 80 | – | Post-emergence action against PHBPU in % (PHBPU): 80%

Reference: patent US12655116B2, “Substituted isophthalic acid diamides” (Bayer Aktiengesellschaft, priority 2020, dated 2026)
